Consider 1 compound from paper doi:10.1101/2025.03.30.646166v1 (biorxiv, 2025).

For this assay, the target named is T1, human USP18 residues 52-372 (recombinant) (Homo sapiens, UniProt Q9UMW8).
T1 sequence (Q9UMW8 52-372): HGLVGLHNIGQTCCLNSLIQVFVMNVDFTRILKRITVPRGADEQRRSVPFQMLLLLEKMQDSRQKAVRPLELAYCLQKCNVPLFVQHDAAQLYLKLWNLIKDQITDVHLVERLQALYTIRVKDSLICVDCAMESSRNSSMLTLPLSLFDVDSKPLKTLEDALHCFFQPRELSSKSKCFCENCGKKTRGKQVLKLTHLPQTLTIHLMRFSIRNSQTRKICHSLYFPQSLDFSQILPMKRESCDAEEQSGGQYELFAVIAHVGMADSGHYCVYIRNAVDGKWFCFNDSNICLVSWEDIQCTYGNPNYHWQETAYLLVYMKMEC
Put plainly: fluorogenic ISG15ct-rhodamine cleavage, dose-response. Format: biochemical.

A word on the IC50: it is the concentration needed to halve the response being measured. Take `Cc1ccc2[nH]c3c(c2c1)CN(C(=O)c1cc(-c2ccccc2)[nH]n1)CC3` [compound 8655, ZHAWOC8655]: the IC50 was found to be 14.1 ± 1.6 µM.
